These results are taken from ChEMBL document CHEMBL4265872, “Around the macrolide - Impact of 3D structure of macrocycles on lipophilicity and cellular accumulation” (Eur J Med Chem, 2017).

By chromatographic logD is commonly meant lipophilicity estimated from chromatographic retention.

The nature of series [1]: Chromatographic hydrophobicity, logD of the compound at pH 7.4 by fast-gradient RP-HPLC method. The series is classed as physicochemical. The conditions noted are these: buffer.
Series [2] is described as follows: Drug accumulation in human NCI-H292 cells at 3 to 10 uM incubated for 3 hrs by LC-MS analysis relative to azithromycin. The conditions noted are these: nci-h292, 3 h. The series is classed as ADME, cell-based.

Each structure is given as a SMILES string.

In series [1], `CCCCC(=O)NCCCN(C)[C@H]1C[C@@H](C)O[C@@H](O[C@@H]2[C@@H](C)[C@H](O[C@H]3C[C@@](C)(OC)[C@@H](O)[C@H](C)O3)[C@@H](C)C(=O)O[C@H](CC)[C@@](C)(O)[C@H](O)[C@@H](C)N(C)C[C@H](C)C[C@@]2(C)O)[C@@H]1O` showed a chromatographic logD of 3.08. In series [2], this compound displayed a Drug uptake of 75%.
On to `CCCCC(=O)NCCCN1C[C@H](C)C[C@@](C)(O)[C@H](O[C@@H]2O[C@H](C)C[C@H](N(C)C)[C@H]2O)[C@@H](C)[C@H](O[C@H]2C[C@@](C)(OC)[C@@H](O)[C@H](C)O2)[C@@H](C)C(=O)O[C@H](CC)[C@@](C)(O)[C@H](O)[C@H]1C`, for which, in series [1], the chromatographic logD was 2.72. The same compound came in with a Drug uptake in series [2] of 7%.
Compound `CC[C@H]1OC(=O)[C@H](C)[C@@H](O[C@H]2C[C@@](C)(OC)[C@@H](O)[C@H](C)O2)[C@H](C)[C@@H](O[C@@H]2O[C@H](C)C[C@H](N(C)C)[C@H]2O)[C@](C)(O)C[C@@H](C)CN(C)[C@H](C)[C@@H](OCCCNC(=O)c2c(C)nn(C)c2Cl)[C@]1(C)O` came in with a chromatographic logD in series [1] of 3.01. The compound also came in with a Drug uptake in series [2] of 51%.
The matching figures for `CC[C@H]1OC(=O)[C@H](C)[C@@H](O[C@H]2C[C@@](C)(OC)[C@@H](O)[C@H](C)O2)[C@H](C)[C@@H](O[C@@H]2O[C@H](C)C[C@H](N(C)C)[C@H]2O)[C@](C)(OC)C[C@@H](C)C(=O)[C@H](C)[C@@H](OCCCNC(C)=O)[C@]1(C)O`: 2.72 and 11%.
As to `CC[C@H]1OC(=O)[C@H](C)[C@@H](O[C@H]2C[C@@](C)(OC)[C@@H](O)[C@H](C)O2)[C@H](C)[C@@H](O[C@@H]2O[C@H](C)C[C@H](N(C)CCCNC(C)=O)[C@H]2O)[C@](C)(O)C[C@@H](C)CN(C)[C@H](C)[C@@H](O)[C@]1(C)O`, the chromatographic logD in series [1] came out at 2.06. In addition, the Drug uptake in series [2] is on record as 5%.
The matching figures for `CC[C@H]1OC(=O)[C@H](C)[C@@H](O[C@H]2C[C@@](C)(OC)[C@@H](OCCCNC(=O)COC)[C@H](C)O2)[C@H](C)[C@@H](O[C@@H]2O[C@H](C)C[C@H](N(C)C)[C@H]2O)[C@](C)(O)C[C@@H](C)CN(C)[C@H](C)[C@@H](O)[C@]1(C)O`: 2.16 and 9%.
The matching figures for `CCC(=O)NCCCO[C@@H]1[C@@H](C)N(C)C[C@H](C)C[C@@](C)(O)[C@H](O[C@@H]2O[C@H](C)C[C@H](N(C)C)[C@H]2O)[C@@H](C)[C@H](O[C@H]2C[C@@](C)(OC)[C@@H](O)[C@H](C)O2)[C@@H](C)C(=O)O[C@H](CC)[C@@]1(C)O`: 2.74 and 41%.
The compound `CC[C@H]1OC(=O)[C@H](C)[C@@H](O[C@H]2C[C@@](C)(OC)[C@@H](OCCCNC(=O)C3CCC3)[C@H](C)O2)[C@H](C)[C@@H](O[C@@H]2O[C@H](C)C[C@H](N(C)C)[C@H]2O)[C@](C)(O)C[C@@H](C)CN(C)[C@H](C)[C@@H](O)[C@]1(C)O` showed a chromatographic logD in series [1] of 2.62. This compound also had a Drug uptake in series [2] of 51%.
The matching figures for `CCC(=O)NCCCO[C@H]1[C@H](O[C@@H]2[C@@H](C)[C@H](O[C@H]3C[C@@](C)(OC)[C@@H](O)[C@H](C)O3)[C@@H](C)C(=O)O[C@H](CC)[C@@](C)(O)[C@H](O)[C@@H](C)N(C)C[C@H](C)C[C@@]2(C)O)O[C@H](C)C[C@@H]1N(C)C`: 2.7 and 41%.
The matching figures for `CCCCCCCC(=O)NCCCN(C)[C@H]1C[C@@H](C)O[C@@H](O[C@@H]2[C@@H](C)[C@H](O)[C@@H](C)C(=O)O[C@H](CC)[C@@](C)(O)[C@H](O)[C@@H](C)N(C)C[C@H](C)C[C@@]2(C)O)[C@@H]1O`: 4.84 and 226%.
The matching figures for `CC[C@H]1OC(=O)[C@H](C)[C@@H](O[C@H]2C[C@@](C)(OC)[C@@H](O)[C@H](C)O2)[C@H](C)[C@@H](O[C@@H]2O[C@H](C)C[C@H](N(C)C)[C@H]2OCCCNC(=O)COC)[C@](C)(O)C[C@@H](C)CN(C)[C@H](C)[C@@H](O)[C@]1(C)O`: 2.54 and 22%.
For `CC[C@H]1OC(=O)[C@H](C)[C@@H](O)[C@H](C)[C@@H](O)[C@](C)(O)C[C@@H](C)CN(C)[C@H](C)[C@@H](O)[C@]1(C)O` [AZITHROMYCIN AGLYCONE], the chromatographic logD in series [1] turned out to be 1.29. Moreover, the Drug uptake in series [2] stood at 13%.
The matching figures for `CC[C@H]1OC(=O)[C@H](C)[C@@H](O)[C@H](C)[C@@H](O[C@@H]2O[C@H](C)C[C@H](N(C)C)[C@H]2O)[C@](C)(O)C[C@@H](C)CN(C)[C@H](C)[C@@H](O)[C@]1(C)O` [DESCLADINOSYL AZITHROMYCIN]: 1.35 and 56%.
Consider `CC[C@H]1OC(=O)[C@H](C)[C@@H](O[C@H]2C[C@@](C)(OC)[C@@H](OCCCNC(C)=O)[C@H](C)O2)[C@H](C)[C@@H](O[C@@H]2O[C@H](C)C[C@H](N(C)C)[C@H]2O)[C@](C)(OC)C[C@@H](C)C(=O)[C@H](C)[C@@H](O)[C@]1(C)O`, for which the chromatographic logD in series [1] came to 3.08. Further, the Drug uptake in series [2] is listed as 30%.
The matching figures for `CCCCCCCC(=O)NCCCO[C@H]1[C@H](C)O[C@@H](O[C@H]2[C@H](C)[C@@H](O[C@@H]3O[C@H](C)C[C@H](N(C)C)[C@H]3O)[C@](C)(OC)C[C@@H](C)C(=O)[C@H](C)[C@@H](O)[C@](C)(O)[C@@H](CC)OC(=O)[C@@H]2C)C[C@@]1(C)OC`: 6.02 and 281%.
The compound `CC[C@H]1OC(=O)[C@H](C)[C@@H](O[C@H]2C[C@@](C)(OC)[C@@H](O)[C@H](C)O2)[C@H](C)[C@@H](O[C@@H]2O[C@H](C)C[C@H](N(C)C)[C@H]2O)[C@](C)(O)C[C@@H](C)CN(C)[C@H](C)[C@@H](O)[C@]1(C)O` [AZITHROMYCIN] yielded a chromatographic logD in series [1] of 2.11. Moreover, the Drug uptake in series [2] was 100%.
The matching figures for `CC[C@H]1OC(=O)[C@H](C)[C@@H](O[C@H]2C[C@@](C)(OC)[C@@H](O)[C@H](C)O2)[C@H](C)[C@@H](O[C@@H]2O[C@H](C)C[C@H](N(C)C)[C@H]2O)[C@](C)(O)C[C@@H](C)CN(C)[C@H](C)[C@@H](OCCCNC(C)=O)[C@]1(C)O`: 2.41 and 7%.
Regarding `CC[C@H]1OC(=O)[C@H](C)[C@@H](O)[C@H](C)[C@@H](O[C@@H]2O[C@H](C)C[C@H](N(C)C)[C@H]2O)[C@](C)(OC)C[C@@H](C)/C(=N\O)[C@H](C)[C@@H](O)[C@]1(C)O`, the chromatographic logD in series [1] stood at 2.31. Further, in series [2], the Drug uptake amounted to 17%.
The matching figures for `CCCCCCCC(=O)NCCCO[C@H]1[C@H](C)O[C@@H](O[C@H]2[C@H](C)[C@@H](O[C@@H]3O[C@H](C)C[C@H](N(C)C)[C@H]3O)[C@](C)(O)C[C@@H](C)CN(C)[C@H](C)[C@@H](O)[C@](C)(O)[C@@H](CC)OC(=O)[C@@H]2C)C[C@@]1(C)OC`: 4.1 and 357%.
The matching figures for `CC[C@H]1OC(=O)[C@H](C)[C@@H](O[C@H]2C[C@@](C)(OC)[C@@H](O)[C@H](C)O2)[C@H](C)[C@@H](O[C@@H]2O[C@H](C)C[C@H](N(C)C)[C@H]2O)[C@](C)(O)C[C@@H](C)CN(CCCNC(C)=O)[C@H](C)[C@@H](O)[C@]1(C)O`: 2.06 and 1%.
The matching figures for `CC[C@H]1OC(=O)[C@H](C)[C@@H](O[C@H]2C[C@@](C)(OC)[C@@H](OC(=O)CN(CC)CC)[C@H](C)O2)[C@H](C)[C@@H](O[C@@H]2O[C@H](C)C[C@H](N(C)C)[C@H]2O)[C@](C)(OC)C[C@@H](C)C(=O)N[C@H](C)[C@@H](O)[C@]1(C)O`: 3.86 and 121%.
